The test system of test [1] is IPOHE (Morningglory, Ivyleaf). The test can be described thus: Postemergence herbicidal evaluation. Type of test: in vivo, Ipomoea hederacea. The conditions noted are these: postemergence. In a few lines: (§1)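 Each compound, dispersed in an acetone/water mix (50/50) carrying 0.5% TWEEN 20, is nozzle-sprayed at 40 psi on approximately two-week-old seedlings at about 0.0156–0.500 kg/ha. Plants are assessed 4–5 weeks afterward on a 0–9 scale relative to control; duplicate tests are averaged.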

A further test relates to ECHCG (Barnyardgrass). In words: Preemergence herbicidal evaluation. Format: in vivo, Echinochloa crus-galli. The conditions noted are these: preemergence, rated 4-5 weeks after treatment, 0-9 scale. The gist of the method: (§2)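 Each species is sown separately in potting soil over roughly an inch of soil before any emergence. The soil surface then receives an aqueous acetone spray delivering about 0.0156 to 0.500 kg/ha of compound. After four to five weeks, injury is scored from 0 to 9 relative to a control.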

Test [2] deals with CHEAL (Lambsquarters, Common). The test can be described thus: Postemergence herbicidal evaluation. Type of test: in vivo, Chenopodium album. The conditions noted are these: postemergence. In a few lines:
as §1

The test system of the next test is MOOVA (Monochoria). In words: Postemergence weed control under flooded paddy conditions. To be noted: postemergence weeds, rated 3 to 4 weeks after treatment. Format: in vivo, Monochoria vaginalis. In a few lines:
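Flood-water application, about 0.0313–0.500 kg/ha a.i. in aqueous/acetone 50/50 v/v; water depth 1.5–3 cm throughout. Weeds 3–5 cm, rice 1.5–2.5 leaf. Greenhouse; 0–9 visual rating vs control at 3–4 wk.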

The test system of test [3] is GLXMAW (Soybean, Williams). The test can be described thus: Preemergence herbicidal evaluation. Type of test: in vivo, Glycine max, (L.) Merr. cv Williams. To be noted: preemergence, rated 4-5 weeks after treatment, 0-9 scale. In a few lines:
as §2

A further test deals with GALAP (Galium). In words: Preemergence herbicidal evaluation. Type of test: in vivo, Galium aparine. The conditions noted are these: preemergence, rated 4-5 weeks after treatment, 0-9 scale. In a few lines: as §2

Each structure is given as a SMILES string.

Take `CCOC(=O)CN1C(=O)C(CC(=O)OC(C)C(=O)OCC)S/C1=N/c1cc(-n2c(=O)cc(C(F)(F)F)n(C)c2=O)c(F)cc1Cl` (stereo not drawn) [Compound 87]: the IPOHE herbicidal rating in test [1] (rate 0.0156 kg/ha), in test [1] (rate 0.0313 kg/ha), in test [1] (rate 0.0625 kg/ha), in test [1] (rate 0.1250 kg/ha) and in test [1] (rate 0.2500 kg/ha) was 9.0 throughout. Besides, the ECHCG rating with ECHCG (Barnyardgrass) (0.1250 kg/ha), in the test with ECHCG (Barnyardgrass) (0.2500 kg/ha) and with ECHCG (Barnyardgrass) (0.5000 kg/ha) was 0.0 each time. The CHEAL herbicidal rating is 0.0 in test [2] (rate 0.0156 kg/ha); 0.0 in test [2] (rate 0.0313 kg/ha); 3.0 in test [2] (rate 0.0625 kg/ha); 4.0 in test [2] (rate 0.1250 kg/ha); 9.0 in test [2] (rate 0.2500 kg/ha). Further, the “Herbicidal rating MOOVA” value in the test on MOOVA (Monochoria) (Rate 0.0313 kg/ha), in the test on MOOVA (Monochoria) (Rate 0.0625 kg/ha), in the test with MOOVA (Monochoria) (Rate 0.1250 kg/ha), in the test with MOOVA (Monochoria) (Rate 0.2500 kg/ha) and in the test on MOOVA (Monochoria) (Rate 0.5000 kg/ha) was 9.0 each time. In addition, the GLXMAW rating in test [3] (0.1250 kg/ha) was 0.0; in test [3] (0.2500 kg/ha), 4.0; in test [3] (0.5000 kg/ha), 5.0. The GALAP rating is 0.0 in the test on GALAP (Galium) (0.1250 kg/ha), 0.0 in the test on GALAP (Galium) (0.2500 kg/ha) and 7.0 in the test with GALAP (Galium) (0.5000 kg/ha).

Take `COC(=O)CC1SC(=Nc2cc(-n3c(=O)cc(C(F)(F)F)n(C)c3=O)c(F)cc2Cl)N(C)C1=O` (stereo not drawn) [Compound 88, Methyl 2-{{2-chloro-5-[3,6-dihydro-3-methyl-2,6-dioxo-4-(trifluoromethyl)-1(2H)-pyrimidinyl]-4-fluorophenyl}imino}-3-methyl-4-oxo-5-thiazolidineacetate]: the IPOHE herbicidal rating in test [1] (rate 0.0158 kg/ha), in test [1] (rate 0.0315 kg/ha) and in test [1] (rate 0.0630 kg/ha) was 9.0 each time. Also, the ECHCG rating is 0.0 in the test with ECHCG (Barnyardgrass) (0.0156 kg/ha); 0.0 in the test with ECHCG (Barnyardgrass) (0.0313 kg/ha); 0.0 with ECHCG (Barnyardgrass) (0.0625 kg/ha); 0.0 with ECHCG (Barnyardgrass) (0.1250 kg/ha); 2.0 in the test with ECHCG (Barnyardgrass) (0.2500 kg/ha). Further, the CHEAL herbicidal rating in test [2] (rate 0.0158 kg/ha), in test [2] (rate 0.0315 kg/ha) and in test [2] (rate 0.0630 kg/ha) was 9.0 throughout. The “Herbicidal rating MOOVA” value with MOOVA (Monochoria) (Rate 0.0313 kg/ha), in the test with MOOVA (Monochoria) (Rate 0.0625 kg/ha), in the test with MOOVA (Monochoria) (Rate 0.1250 kg/ha) and in the test with MOOVA (Monochoria) (Rate 0.2500 kg/ha) was 9.0 each time. Moreover, the GLXMAW rating came to 0.0 in test [3] (0.0156 kg/ha); 0.0 in test [3] (0.0313 kg/ha); 0.0 in test [3] (0.0625 kg/ha); 4.0 in test [3] (0.1250 kg/ha); 9.0 in test [3] (0.2500 kg/ha). In addition, the GALAP rating with GALAP (Galium) (0.0156 kg/ha) was found to be 0.0; with GALAP (Galium) (0.0313 kg/ha), 0.0; in the test on GALAP (Galium) (0.0625 kg/ha), 3.0; with GALAP (Galium) (0.1250 kg/ha), 3.0; in the test on GALAP (Galium) (0.2500 kg/ha), 9.0.

For the compound `CN1C(=O)C(CC(N)=O)SC1=Nc1cc(-n2c(=O)cc(C(F)(F)F)n(C)c2=O)c(F)cc1Cl` (stereo not drawn) [Compound 92, 2-{{2-Chloro-5-[3,6-dihydro-3-methyl-2,6-dioxo-4-(trifluoromethyl)-1(2H)-pyrimidinyl]-4-fluorophenyl}imino}-3-methyl-4-oxo-5-thiazolidineacetamide], the IPOHE herbicidal rating in test [1] (rate 0.0158 kg/ha), in test [1] (rate 0.0315 kg/ha) and in test [1] (rate 0.0630 kg/ha) was 9.0 throughout. The ECHCG rating in the test with ECHCG (Barnyardgrass) (0.0156 kg/ha), with ECHCG (Barnyardgrass) (0.0313 kg/ha), in the test with ECHCG (Barnyardgrass) (0.0625 kg/ha), in the test with ECHCG (Barnyardgrass) (0.1250 kg/ha) and in the test with ECHCG (Barnyardgrass) (0.2500 kg/ha) was 0.0 each time. For the same compound, the figures for the CHEAL herbicidal rating in test [2] (rate 0.0158 kg/ha), in test [2] (rate 0.0315 kg/ha) and in test [2] (rate 0.0630 kg/ha) were 2.0, 9.0 and 9.0, respectively. The “Herbicidal rating MOOVA” value with MOOVA (Monochoria) (Rate 0.0313 kg/ha), with MOOVA (Monochoria) (Rate 0.0625 kg/ha), with MOOVA (Monochoria) (Rate 0.1250 kg/ha) and in the test on MOOVA (Monochoria) (Rate 0.2500 kg/ha) was 9.0 each time. The GLXMAW rating in test [3] (0.0156 kg/ha) is recorded as 0.0; in test [3] (0.0313 kg/ha), 0.0; in test [3] (0.0625 kg/ha), 0.0; in test [3] (0.1250 kg/ha) it was 1.0; in test [3] (0.2500 kg/ha), 5.0. In addition, the GALAP rating with GALAP (Galium) (0.0156 kg/ha) was 0.0; with GALAP (Galium) (0.0313 kg/ha), 0.0; in the test with GALAP (Galium) (0.0625 kg/ha), 0.0; in the test with GALAP (Galium) (0.1250 kg/ha), 9.0; with GALAP (Galium) (0.2500 kg/ha), 9.0.

In the case of `C=CCN1C(=O)C(CC(=O)OC(C)C(=O)OCC)SC1=Nc1cc(-n2c(=O)ccn(C)c2=O)c(F)cc1Cl` [Compound 94, 3-Allyl-2-{{2-chloro-5-[3,6-dihydro-3-methyl-2,6-dioxo-1(2H)-pyrimidinyl]-4-fluorophenyl}imino}-4-oxo-5-thiazolidineacetic acid, ester with ethyl lactate, (R,S)-], the IPOHE herbicidal rating in test [1] (rate 0.0158 kg/ha), in test [1] (rate 0.0315 kg/ha) and in test [1] (rate 0.0630 kg/ha) was 9.0 throughout. In addition, the ECHCG rating with ECHCG (Barnyardgrass) (0.0156 kg/ha), in the test on ECHCG (Barnyardgrass) (0.0313 kg/ha), in the test on ECHCG (Barnyardgrass) (0.0625 kg/ha), in the test with ECHCG (Barnyardgrass) (0.1250 kg/ha) and in the test with ECHCG (Barnyardgrass) (0.2500 kg/ha) was 0.0 throughout. Besides, the CHEAL herbicidal rating in test [2] (rate 0.0158 kg/ha), in test [2] (rate 0.0315 kg/ha) and in test [2] (rate 0.0630 kg/ha) was 9.0 in each case. Further, the “Herbicidal rating MOOVA” value with MOOVA (Monochoria) (Rate 0.0313 kg/ha), with MOOVA (Monochoria) (Rate 0.0625 kg/ha), in the test on MOOVA (Monochoria) (Rate 0.1250 kg/ha) and with MOOVA (Monochoria) (Rate 0.2500 kg/ha) was 9.0 in each case. Moreover, the GLXMAW rating came to 0.0 in test [3] (0.0156 kg/ha); 0.0 in test [3] (0.0313 kg/ha); 0.0 in test [3] (0.0625 kg/ha); 0.0 in test [3] (0.1250 kg/ha); 4.0 in test [3] (0.2500 kg/ha). The GALAP rating with GALAP (Galium) (0.0156 kg/ha) stood at 0.0; with GALAP (Galium) (0.0313 kg/ha), 0.0; with GALAP (Galium) (0.0625 kg/ha), 0.0; in the test on GALAP (Galium) (0.1250 kg/ha), 3.0; with GALAP (Galium) (0.2500 kg/ha), 9.0.

Turning to `CN1C(=O)C(CC(=O)NS(C)(=O)=O)SC1=Nc1cc(-n2c(=O)cc(C(F)(F)F)n(C)c2=O)c(F)cc1Cl` (stereo not drawn) [Compound 97, 2-{{2-Chloro-5-[3,6-dihydro-3-methyl-2,6-dioxo-4-(trifluoromethyl)-1(2H)-pyrimidinyl]-4-fluorophenyl}imino}-3-methyl-N-(methylsulfonyl)-4-oxo-5-thiazolidineacetamide], the IPOHE herbicidal rating is 7.0 in test [1] (rate 0.0156 kg/ha), 9.0 in test [1] (rate 0.0313 kg/ha), 9.0 in test [1] (rate 0.0625 kg/ha) and 9.0 in test [1] (rate 0.1250 kg/ha). Further, the ECHCG rating with ECHCG (Barnyardgrass) (0.1250 kg/ha), in the test on ECHCG (Barnyardgrass) (0.2500 kg/ha) and in the test on ECHCG (Barnyardgrass) (0.5000 kg/ha) was 0.0 each time. Further, the CHEAL herbicidal rating in test [2] (rate 0.0156 kg/ha) is reported as 0.0; in test [2] (rate 0.0313 kg/ha), 1.0; in test [2] (rate 0.0625 kg/ha), 4.0; in test [2] (rate 0.1250 kg/ha), 7.0. Besides, the “Herbicidal rating MOOVA” value in the test with MOOVA (Monochoria) (Rate 0.0313 kg/ha), with MOOVA (Monochoria) (Rate 0.0625 kg/ha), in the test with MOOVA (Monochoria) (Rate 0.1250 kg/ha) and in the test on MOOVA (Monochoria) (Rate 0.2500 kg/ha) was 9.0 throughout. Besides, the GLXMAW rating in test [3] (0.1250 kg/ha) is on record as 0.0; in test [3] (0.2500 kg/ha) it was 0.0; in test [3] (0.5000 kg/ha) it was 3.0. The GALAP rating in the test on GALAP (Galium) (0.1250 kg/ha) is 1.0; in the test with GALAP (Galium) (0.2500 kg/ha) it was 0.0; in the test on GALAP (Galium) (0.5000 kg/ha) it was 5.0.

Source of the values: patent publication US20020137929A1, “1 - (3-heterocyclylphenyl) isothiourea, -isourea, -guanidine and -amidine herbicidal agents” (Intellectual Property Department, BASF Aktiengesellschaft, priority 1998, published 2002).
